Measurements from article PMC4474874, “Effect of JAK Inhibitors on Release of CXCL9, CXCL10 and CXCL11 from Human Airway Epithelial Cells” (PLoS ONE, 2015).
Where two headings read alike, the source gives them in different places.

Tests used:
[1] = tested on: human primary airway epithelial cells; experiment: IL-6 release from IFNγ + TNFα-stimulated human primary airway epithelial cells; type: cell-based; conditions: IFNγ + TNFα, n = 7
Description: In order to determine whether any of the inhibitory effects of the JAK inhibitors could be attributed to cell death, MTT assays were performed at the end of every experiment. […] In order to address this issue, the levels of IL-6 released from cells stimulated with IFNγ + TNFα were measured.

[2] = tested on: human primary airway epithelial cells; experiment: Release of CXCL9, CXCL10 and CXCL11 from human primary airway epithelial cells (ELISA); type: cell-based; conditions: pre-treated 1h; for IC50: pooled primary cells
Description: BEAS-2B cells (catalogue number CRL-9609) were purchased directly from American Type Culture Collection (Rockville, MD). Keratinocyte serum-free medium (K-SFM), bovine pituitary extract (BPE), and recombinant human epidermal growth factor (EGF) were purchased from Invitrogen (Paisley, UK). BEAS-2B cells were cultured in K-SFM containing 50 μg/ml BPE and 5 ng/ml EGF at 37°C in a humidified atmosphere comprising 5% (v/v) CO2 in air. Cells were cultured as monolayers in growth factor-free media for 24 h prior to stimulation. Human primary airway epithelial cells were cultured as monolayers from bronchial brushings from both male and female subjects (Table 1) and cultured in LHC-9 media (Invitrogen, Paisley, UK) in collagen (1% w/v) coated flasks. Samples were obtained from non-smokers, smokers and patients with COPD. […] The subjects were matched for age and smokers and COPD patients for smoking history (Table 1). All subjects gave informed written consent and the study was approved by the NRES London-Chelsea Research Ethics committee, study number 09/H0801/85.
Cell-free supernatants were removed 20h post-stimulation and assayed for CXCL9, CXCL10 and CXCL11 using Duoset ELISA kits (R & D Systems Europe, Abingdon, UK) according to the manufacturer’s instructions. The detection limits of these assays are 62pg/ml, 31pg/ml, and 7.8 pg/ml respectively.
Data are presented as mean ± SEM of ‘n’ independent determinations. Concentration-response curves were analysed by least-squares, non-linear iterative regression with the ‘Graphpad Prism’ curve fitting program (GraphPad software, San Diego, USA) and IC50 values were subsequently interpolated from curves of best-fit. Statistical differences were determined using the Kruskal–Wallis test followed by Dunn's multiple comparison test or a Wilcoxon signed rank test as appropriate. Values of P<0.05 were considered significant.
Media was harvested and the concentrations of CXCL9 (panels a and d), CXCL10 (panels b and e) and CXCL11 (panels c and f) were measured by ELISA. Data are presented as mean ± SEM, n = 10–13.

cdk2 = tested on: cdk2; set-up: method as in PMID 18094329; conditions: inactive or IC50 >30μM; read-out: IC50 against cdk2; cited from earlier work
CHK1 = tested on: CHK1; set-up: method as in PMID 18094329; conditions: inactive or IC50 >30μM; read-out: IC50 against CHK1; cited from earlier work
STAT-1 [3] = experiment: STAT-1 phosphorylation in BEAS-2B cells (western blot); type: cell-based, human; conditions: n = 4
Description: (§1) Enhanced chemiluminescence (ECL) reagent and Hybond-ECL nitrocellulose were obtained from GE Healthcare (Little Chalfont, UK). Bis-Tris SDS-PAGE (4–12%) gels and buffers were purchased from Invitrogen Ltd (Paisley, Scotland, UK). Antibodies against phosphorylated and total STAT-1 were purchased from New England Biolabs (Hitchin, UK). Epithelial cells were treated as indicated in six-well plates and lysed in 10 mM Tris-HCl buffer (pH 7.5) containing 150 mM NaCl, 2 mM EDTA, 1 mM sodium orthovanadate, 1% (v/v) Triton X-100, 1 mM phenylmethylsulfonyl fluoride, 10 μg/ml leupeptin, and 10 μg/ml aprotinin) for 30 min on ice. The lysates were then centrifuged at 12,000g for 15 min and protein concentration determined using the BCA protein assay (BioRad, Hemel Hempstead, UK). The proteins within the lysates (20 μg) were resolved with 4–12% Bis-Tris gels and transferred onto nitrocellulose membranes. The membranes were then blocked with 5% (w/v) non-fat milk in TBS containing 0.1% (v/v) Tween 20 for 1 h at room temperature and then incubated with antibodies specific for pSTAT-1 overnight at 4°C. The primary antibody was detected with peroxidase-conjugated secondary antibodies and labelled proteins were detected by ECL.
Having ascertained that JAK inhibitors could suppress the glucocorticosteroid-insensitive release of CXCL9, CXCL10 and CXCL11 from airway epithelial cells, it was important to confirm that this was via inhibition of the JAK-STAT pathway and not an off-target effect of these agents. […] BEAS-2B cells were stimulated with either IFNγ or IFNγ in combination with TNFα and the phosphorylation of STAT-1 was measured by western blotting as reported previously (Fig 4). […] There was no activation of STAT-5A or STAT-5B in this system (data not shown).
Cells were harvested and western blots performed for phosphorylated STAT-1 and total STAT-1 and quantified by densitometry. Data are representative of n = 4 independent experiments (panels a and c) and presented as mean±SEM, n = 4 (panels b and d).

STAT-1 [4] = experiment: STAT-1 phosphorylation in human primary airway epithelial cells (western blot); type: cell-based; conditions: 1μM inhibitor 1h, IFNγ and IFNγ + TNFα 10 min
Description: as §1
Cells were harvested and western blots performed for phosphorylated STAT-1 and total STAT-1 and quantified by densitometry. […]

C[C@@H]1CCN(C(=O)N2CCCC2)C[C@@H]1N(C)c1ncnc2[nH]ccc12 [PF956980]
IC50 [1]: 11400 ± 9000 nM
IC50 ([2]; IFNγ (10ng/ml) 20h, read-out: IC50, release of CXCL9): 680 ± 120 nM
IC50 ([2]; IFNγ (10ng/ml) 20h, read-out: IC50, release of CXCL10): 960 ± 190 nM
IC50 ([2]; IFNγ (10ng/ml) 20h, read-out: IC50, release of CXCL11): 760 ± 120 nM
IC50 ([2]; IFNγ+TNFα (10ng/ml) 20h, read-out: IC50, release of CXCL9): 520 ± 170 nM
IC50 ([2]; IFNγ+TNFα (10ng/ml) 20h, read-out: IC50, release of CXCL10): 2120 ± 240 nM
IC50 ([2]; IFNγ+TNFα (10ng/ml) 20h, read-out: IC50, release of CXCL11): 1580 ± 330 nM
EC50 ([2]; primary cells from COPD patients, IFNγ (10 ng/ml) 20h, read-out: EC50, release of CXCL9): 630 ± 90 nM
EC50 ([2]; primary cells from COPD patients, IFNγ (10 ng/ml) 20h, read-out: EC50, release of CXCL10): 530 ± 10 nM
EC50 ([2]; primary cells from COPD patients, IFNγ (10 ng/ml) 20h, read-out: EC50, release of CXCL11): 820 ± 250 nM
EC50 ([2]; primary cells from COPD patients, IFNγ +TNFα (10 ng/ml) 20h, read-out: EC50, release of CXCL9): 590 ± 380 nM
EC50 ([2]; primary cells from COPD patients, IFNγ +TNFα (10 ng/ml) 20h, read-out: EC50, release of CXCL10): 1840 ± 400 nM
EC50 ([2]; primary cells from COPD patients, IFNγ +TNFα (10 ng/ml) 20h, read-out: EC50, release of CXCL11): 1920 ± 670 nM
EC50 ([2]; primary cells from non-smokers, IFNγ (10 ng/ml) 20h, read-out: EC50, release of CXCL9): 880 ± 390 nM
EC50 ([2]; primary cells from non-smokers, IFNγ (10 ng/ml) 20h, read-out: EC50, release of CXCL10): 810 ± 150 nM
EC50 ([2]; primary cells from non-smokers, IFNγ (10 ng/ml) 20h, read-out: EC50, release of CXCL11): 660 ± 240 nM
EC50 ([2]; primary cells from non-smokers, IFNγ +TNFα (10 ng/ml) 20h, read-out: EC50, release of CXCL9): 610 ± 260 nM
EC50 ([2]; primary cells from non-smokers, IFNγ +TNFα (10 ng/ml) 20h, read-out: EC50, release of CXCL10): 2720 ± 360 nM
EC50 ([2]; primary cells from non-smokers, IFNγ +TNFα (10 ng/ml) 20h, read-out: EC50, release of CXCL11): 1850 ± 670 nM
EC50 ([2]; primary cells from smokers, IFNγ (10 ng/ml) 20h, read-out: EC50, release of CXCL9): 550 ± 90 nM
EC50 ([2]; primary cells from smokers, IFNγ (10 ng/ml) 20h, read-out: EC50, release of CXCL10): 1280 ± 360 nM
EC50 ([2]; primary cells from smokers, IFNγ (10 ng/ml) 20h, read-out: EC50, release of CXCL11): 780 ± 160 nM
EC50 ([2]; primary cells from smokers, IFNγ +TNFα (10 ng/ml) 20h, read-out: EC50, release of CXCL9): 350 ± 260 nM
EC50 ([2]; primary cells from smokers, IFNγ +TNFα (10 ng/ml) 20h, read-out: EC50, release of CXCL10): 1880 ± 410 nM
EC50 ([2]; primary cells from smokers, IFNγ +TNFα (10 ng/ml) 20h, read-out: EC50, release of CXCL11): 870 ± 130 nM
IC50 (cdk2): > 30000 nM
IC50 (CHK1): > 30000 nM
IC50 (STAT-1 [3]; IFNγ + TNFα stimulation): 840 ± 210 nM
IC50 (STAT-1 [3]; IFNγ stimulation): 940 ± 160 nM
effect on phosphorylation of STAT-1 (STAT-1 [4]): suppressed
